Data as given in paper PMC9105941, “A New Xanthone Glycoside from Mangifera indica L.: Physicochemical Properties and In Vitro Anti-Skin Aging Activities” (Molecules, 2022).
Peptide text beside a SMILES is read from it. * marks the point of attachment. MeOSuc = COC(=O)CCC(=O)*; CH2Cl = ClC*

What was measured:
Type in all cases: biochemical
[1] = molecular target: elastase (Sus scrofa, UniProt P00772); experiment: EnzChek Elastase Assay Kit, anti-elastase activity; conditions: fluorometric kit, 37 °C, 30 min kinetic
elastase, sequence (P00772 27-266): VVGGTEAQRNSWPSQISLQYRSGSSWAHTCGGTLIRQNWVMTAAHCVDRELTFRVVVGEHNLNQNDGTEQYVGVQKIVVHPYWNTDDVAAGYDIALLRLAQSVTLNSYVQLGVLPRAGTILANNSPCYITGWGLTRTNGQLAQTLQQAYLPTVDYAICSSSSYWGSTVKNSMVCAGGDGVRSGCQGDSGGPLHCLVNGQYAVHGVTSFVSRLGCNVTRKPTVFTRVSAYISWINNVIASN
Description: Anti-elastase activity of the compound was investigated using the EnzChek® Elastase Assay Kit (E-12056) according to the previously reported method. The tested compound and reference control were prepared in concentrations of 0.1, 1, 10, and 100 µg/mL for the analysis. The compound was prepared in 96-well plates with clear bottoms for the fluorometric assay. Briefly, elastase enzyme solutions, elastase substrate, and inhibitor control were prepared as recommended. Diluted elastase solution was then added to the wells. Tested compound, inhibitor control, and enzyme control were added to subsequent wells. The samples were mixed on a shaker and then incubated for 5 min at 37 °C. Assay buffer was mixed with the substrate to prepare the fluorometric reaction mix, which was then added and mixed thoroughly with each sample. The fluorescence was measured immediately at 400 nm excitation wavelength and 505 nm emission wavelength using a microplate reader (FilterMax F5, Thermo Fisher, Waltham, MA, USA). The measurement was made in kinetic mode at 37 °C for 30 min protected from light. All tested samples were prepared and assayed in duplicate and the elastase inhibitory effect of the tested compound was calculated applying the following equation: %Relative inhibition=ΔRFU(test inhibitor)/ΔRFU×100 where: • ΔRFU = a change in relative fluorescence units • EC = enzyme control

[2] = molecular target: tyrosinase; experiment: Tyrosinase Inhibitor Screening Colorimetric Assay Kit; conditions: 25 °C, 510 nm
Description: The inhibitory activities of oils were tested against collagenase using the Abcam® Tyrosinase Inhibitor Screening Colorimetric Assay Kit (catalog # ab204715). The assay was carried out according to the provided manual. […] The tested compound was prepared in concentrations ranging from 0.1 to 100 µg/mL for the analysis. About 2 μL of provided tyrosinase was mixed with 48 μL of tyrosinase assay buffer. The samples of essential oils or standard (20 μL) were mixed with the enzyme mixture (50 μL) and incubated at 25 °C for 10 min. Then, 30 μL of tyrosinase substrate solution was added to the wells of essential oils and standard. Afterward, the plate was measured spectrophotometrically at a wavelength of 510 nm for 30–60 min at 25 °C.

[3] = molecular target: collagenase; experiment: fluorometric collagenase inhibitor screening kit; conditions: 37 °C, 60 min kinetic
Description: The inhibitory ability of the isolated compound against collagenase activity was assessed using a fluorometric collagenase inhibitor screening kit (BioVision, catalog no. # K833-100) according to the previously described method. The reference control was (1,10)-phenanthroline. The tested compound and reference control were prepared in concentrations of 1, 10, 100, and 1000 ug/mL for the analysis. The tested compound was prepared in a 96-well plate with a flat bottom. First, the collagenase substrate was dissolved in collagenase assay buffer (CAB). The sample for analysis was prepared by mixing the compound with both collagenase and CAB. Preparing inhibitor control samples was performed by mixing the inhibitor ((1,10)-phenanthroline (80 mM)) with the diluted collagenase enzyme and CAB buffer. Enzyme control was prepared by mixing the diluted collagenase with CAB. The CAB buffer was used as the background control. All samples were incubated at room temperature for 15 min. […] The fluorescence was measured immediately at 490 nm excitation wavelength and 520 nm emission wavelength using a microplate reader (FilterMax F5, Thermo Fisher). […] Samples were prepared in duplicate and the collagenase inhibitory effect of the tested compound was calculated applying the following equation: % Relative inhibition=Enzyme control−sample/Enzyme control×100

Structure (SMILES): COC(=O)CCC(=O)N[C@@H](C)C(=O)N[C@@H](C)C(=O)N1CCC[C@H]1C(=O)N[C@H](C(=O)CCl)C(C)C [N-methoxysuccinyl-Ala-Ala-Pro-Val-chloromethyl ketone] (MeOSuc-AAPV-CH2Cl)
- anti-elastase IC50 [1]: 0.63 µg/mL

Structure (SMILES): O=c1c2ccc(O)c(O)c2oc2c(C3OC(CO)C(O)C(O)C3O)c(O)cc(O)c12 [isolated compound, 1,3,5,6-tetrahydroxyxanthone-C-4-β-D-glucopyranoside]
- anti-tyrosinase IC50 [2]: 0.48 µg/mL

Structure (SMILES): c1cnc2c(c1)ccc1cccnc12 [phenanthroline, (1,10)-phenanthroline]
- anti-collagenase IC50 [3]: 182.80 µg/mL
